PMC13619035 (British Journal of Clinical Pharmacology, 2026)

Assay: Single-dose pharmacokinetic study in healthy volunteers, plasma concentrations by LC-MS/MS
Format: in vivo, human
Details: single oral dose of 20 mg pantoprazole or 10 mg omeprazole, 20 healthy volunteers, fasted
Protocol: An open label, randomized, single‐dose pharmacokinetic study in healthy volunteers was conducted in cross‐over design.
The subjects presented to the study facilities fasted in the morning. Three hours after drug intake the subjects received a meal on both study days. […] Venous blood samples (7 mL each) were drawn into EDTA‐containing tubes. Blood samples were centrifuged immediately after blood sampling for 10 min at 2000g to generate blood plasma. Blood plasma was aliquoted and stored at −32 °C until analysis.
Probe drugs and metabolite concentrations were determined using a liquid‐chromatography tandem mass spectrometer (LC–MS/MS) system consisting of an Agilent 1290 Infinity II UHPLC coupled to a Sciex QTRAP6500 + triple quadrupole mass spectrometer.
The total chromatographic method length was increased from 8.5 to 8.8 min. […] Samples were vortexed for 10 s and centrifuged for 20 min at 17.000 x g and 4 °C. A total of 40 μl supernatant were diluted with 40 μl LC grade water, vortexed briefly and centrifuged again for 5 min at 17.000 x g and 4 °C.
The samples were vortexed for 10 s and centrifuged for 20 min at 4 °C and 17.000 x g. […]
The AUC0‐8h metabolic ratios (MR) were calculated as follows: AUC0‐8h MR = AUC0‐8h, metabolite/AUC0‐8h, substrate. […] Statistical significance was assessed using non‐parametric Kruskal‐Wallis test with Dunn's post hoc test. […]

- tmax: 2 h
Structure (SMILES): COc1ccnc(C[S+]([O-])c2nc3ccc(OC(F)F)cc3[nH]2)c1OC (stereo not shown) [pantoprazole]
